US20150315130A1, “New positive allosteric modulators of nicotinic acetylcholine receptor” (H. LUNDBECK A/S, priority 2012, published 2015)

Target: T1, human α7 receptor (Homo sapiens, UniProt P36544)
T1 construct: host or cells: rat GH4C1 cell line
Assay: α7 NNR flux assay (FDSS calcium flux, Calcium-4 dye, PAM mode with acetylcholine)
Type: cell-based
Settings: human α7 receptor stably expressed in rat GH4C1 cells; enhancement of response to 20 μM acetylcholine; % modulation relative to PNU-120596 set to 100%
Procedure: The nicotinic acetylcholine receptor α7 is a calcium-permeable ion channel, whose activity can be measured by over expression in mammalian cells or oocytes. These two individual assays are described in Example 2 and 3, respectively.
In this version of the assay, the human α7 receptor is stably expressed in the rat GH4C1 cell line. The assay was used to identify positive allosteric modulators (PAMs) of the α7 receptor. Activation of the channel was measured by loading cells with the calcium-sensitive fluorescent dye Calcium-4 (Assay kit from Molecular Devices), and then measuring real-time changes in fluorescence upon treatment with test compounds.
The cell line ChanClone GH4C1-nAChRalphα7 from Genionics was seeded from frozen stock in 384-well plates in culture media 2-3 days before experiment to form an approximately 80% confluent layer on the day of experiment.
The cell culture was split into “22.5 cm×22.5 cm”-plates with approximately 100×10^3 cells/cm^2. After four days incubation in a humidified incubator at 37° C. and 5% CO2, it had grown to an 80-90% confluent layer, and the cells were harvested.
Two or three days before the experiment the cells were seeded in 384 well plates from Greiner bio-one (781946, CELLCOAT, Poly-D-Lysine, black, μClear).
The media was poured off and the plate washed with PBS and left to drain. 5 mL Trypsin was added, cells were washed and incubated (at room temperature) for about 10 seconds. Trypsin was poured of quickly and the cells were incubated for 2 minutes at 37° C. (if the cells were not already detached). Cells were resuspended in 10 mL culture media and transferred to 50 mL tubes.
The cell suspension was counted (NucleoCounter, total cell count) from the first plates to estimate the total cell number of the whole batch.
The cells were seeded in 384 well plates with 30 μL/well (30000 cells/well) while stirring the cell suspension or otherwise preventing the cells from precipitating.
The plates were incubated at room temperature for 30-45 minutes.
The plates were placed in incubator for two days (37° C. and 5% CO2).
The loading buffer was 5% v/v Calcium-4 Kit and 2.5 mM Probenecid in assay buffer.
Culture media were removed from the cell plates and 20 μL loading buffer was added in each well. The cell plates were placed in trays and incubated 90 minutes in the incubator (37° C.). Thereafter the plates were incubated 30 minutes at room temperature, still protected from light.
Now the cell plates were ready to run in the Functional Drug Screening System (FDSS).
The assay buffer was HBSS with 20 mM HEPES, pH 7.4 and 3 mM CaCl2.
200 nL 10 mM compound solution in DMSO was diluted in 50 μL assay buffer. The final test concentrations in the cell plates were 20-10-5-2.5-1.25-0.625-0.312-0.156-0.078-0.039 μM. Assay buffer and 3 μM PNU-120596 were used for control.
The agonist acetylcholine was added to a final concentration of 20 μM (˜E0100). In the FDSS7000 the Ex480-Em540 was measured with 1 second intervals. The baseline was made of 5 frames before addition of test compounds, and 95 frames more were made before addition of acetylcholine. The measurement stopped 30 frames after the 2nd addition. Raw data for each well were collected as “the maximum fluorescence count” in the interval 100-131 seconds and as “the average fluorescence count” in the interval 96-100 seconds. The positive allosteric modulation in the 2nd addition was the enhancement of agonist response with test compound compared to agonist alone.
Results were calculated as % modulation of test compound compared to the reference PNU-120596 set to 100%.

T1 sequence (P36544 23-502): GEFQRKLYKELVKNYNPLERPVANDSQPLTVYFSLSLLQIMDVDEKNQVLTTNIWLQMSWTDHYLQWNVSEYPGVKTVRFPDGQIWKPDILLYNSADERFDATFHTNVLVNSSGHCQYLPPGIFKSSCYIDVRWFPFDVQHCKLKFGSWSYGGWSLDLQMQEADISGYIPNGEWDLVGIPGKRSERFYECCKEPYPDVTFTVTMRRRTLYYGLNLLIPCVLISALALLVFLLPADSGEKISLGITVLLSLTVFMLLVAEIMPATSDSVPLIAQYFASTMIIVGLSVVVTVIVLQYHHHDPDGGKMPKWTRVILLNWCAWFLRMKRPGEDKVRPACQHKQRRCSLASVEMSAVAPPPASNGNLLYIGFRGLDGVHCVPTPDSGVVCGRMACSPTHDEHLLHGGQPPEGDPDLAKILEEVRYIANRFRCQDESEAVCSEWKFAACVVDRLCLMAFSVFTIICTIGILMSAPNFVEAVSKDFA

SMILES	EC50 [nM]
COc1ccc([C@H](CO)NC(=O)[C@H]2C[C@@H]2c2cccc(F)c2)cc1 [Compound 4, (1S,2S)-2-(3-Fluoro-phenyl)-cyclopropanecarboxylic acid [(R)-2-hydroxy-1-(4-methoxy-phenyl)-ethyl]-amide]	1200
Cc1ccc([C@H](C)NC(=O)[C@H]2C[C@@H]2c2ccccc2)cc1 [Compound 5, (1S,2S)-2-Phenyl-cyclopropanecarboxylic acid ((S)-1-p-tolyl-ethyl)-amide]	3800
C[C@H](NC(=O)[C@H]1C[C@@H]1c1ccccc1)c1ccccc1F [Compound 12, (1S,2S)-2-Phenyl-cyclopropanecarboxylic acid [(S)-1-(2-fluoro-phenyl)-ethyl]-amide]	1900
COc1ccc([C@H](CO)NC(=O)[C@H]2C[C@@H]2c2ccccc2)c(F)c1 [Compound 9, (1S,2S)-2-Phenyl-cyclopropanecarboxylic acid [(R)-1-(2-fluoro-4-methoxy-phenyl)-2-hydroxy-ethyl]-amide]	610
C[C@H](NC(=O)[C@H]1C[C@@H]1c1ccccc1)c1cccc(F)c1 [Compound 6, (1S,2S)-2-Phenyl-cyclopropanecarboxylic acid [(S)-1-(3-fluoro-phenyl)-ethyl]-amide]	3100
O=C(N[C@@H](CCO)c1ccccc1)[C@H]1C[C@@H]1c1ccccc1 [Compound 2, (1S,2S)-2-Phenyl-cyclopropanecarboxylic acid ((S)-3-hydroxy-1-phenyl-propyl)-amide]	4900
COc1cccc([C@H](C)NC(=O)[C@H]2C[C@@H]2c2ccccc2)c1 [Compound 11, (1S,2S)-2-Phenyl-cyclopropanecarboxylic acid [(S)-1-(3-methoxy-phenyl)ethyl]-amide]	3000
COc1ccc([C@H](C)NC(=O)[C@H]2C[C@@H]2c2ccccc2)cc1 [Compound 1, (1S,2S)-2-Phenyl-cyclopropanecarboxylic acid [(S)-1-(4-methoxy-phenyl)ethyl]-amide]	1500
O=C(N[C@@H](CO)c1ccc(OC(F)(F)F)cc1)[C@H]1C[C@@H]1c1ccccc1 [Compound 7, (1S,2S)-2-Phenyl-cyclopropanecarboxylic acid [(R)-2-hydroxy-1-(4-trifluoromethoxy-phenyl)-ethyl]-amide]	3600
C[C@H](NC(=O)[C@H]1C[C@@H]1c1ccccc1)c1ccc(F)cc1 [Compound 3, (1S,2S)-2-Phenyl-cyclopropanecarboxylic acid [(S)-1-(4-fluoro-phenyl)-ethyl]-amide]	2400
CCOc1ccc([C@H](CO)NC(=O)[C@H]2C[C@@H]2c2ccccc2)cc1 [Compound 8, (1S,2S)-2-Phenyl-cyclopropanecarboxylic acid [(R)-1-(4-ethoxy-phenyl)-2-hydroxy-ethyl]-amide]	270
COc1ccc([C@H](CO)NC(=O)[C@H]2C[C@@H]2c2ccccc2)cc1 [Compound 10, (1S,2S)-2-Phenyl-cyclopropanecarboxylic acid [(R)-2-hydroxy-1-(4-methoxy-phenyl)-ethyl]-amide]	645

More lines, now with the values ahead:

EC50 [nM]	SMILES
510	COc1ccc([C@H](CO)NC(=O)[C@H]2C[C@@H]2c2ccc(F)cc2)cc1 [Compound 13, (1S,2S)-2-(4-Fluoro-phenyl)-cyclopropanecarboxylic acid [(R)-2-hydroxy-1-(4-methoxy-phenyl)-ethyl]-amide]
140	O=C(N[C@@H](CO)c1ccc(OCCF)cc1)[C@H]1C[C@@H]1c1ccc(F)cc1 [Compound 25, (1S,2S)-2-(4-Fluoro-phenyl)-cyclopropanecarboxylic acid {(R)-1-[4-(2-fluoro-ethoxy)-phenyl]-2-hydroxy-ethyl}-amide]
3800	O=C(N[C@@H](CO)c1ccc(O)cc1)[C@H]1C[C@@H]1c1cccc(F)c1 [Compound 23, (1S,2S)-2-(3-Fluoro-phenyl)-cyclopropanecarboxylic acid [(R)-2-hydroxy-1-(4-hydroxy-phenyl)-ethyl]-amide]
84	COC[C@H](NC(=O)[C@H]1C[C@@H]1c1ccc(F)cc1)c1ccc(OC)cc1 [Compound 20, (1S,2S)-2-(4-Fluoro-phenyl)-cyclopropanecarboxylic acid [(R)-2-methoxy-1-(4-methoxy-phenyl)-ethyl]-amide]
3900	O=C(N[C@@H](CO)c1ccc(O)cc1)[C@H]1C[C@@H]1c1ccccc1 [Compound 18, (1S,2S)-2-Phenyl-cyclopropanecarboxylic acid [(R)-2-hydroxy-1-(4-hydroxy-phenyl)-ethyl]-amide]
3200	O=C(N[C@@H](CO)c1ccc(O)cc1)[C@H]1C[C@@H]1c1ccc(F)cc1 [Compound 22, (1S,2S)-2-(4-Fluoro-phenyl)-cyclopropanecarboxylic acid [(R)-2-hydroxy-1-(4-hydroxy-phenyl)-ethyl]-amide]
1500	O=C(N[C@@H](CO)c1ccc(OCCF)cc1)[C@H]1C[C@@H]1c1ccccc1 [Compound 24, (1S,2S)-2-Phenyl-cyclopropanecarboxylic acid {(R)-1-[4-(2-fluoro-ethoxy)phenyl]-2-hydroxy-ethyl}-amide]
1100	COC[C@H](NC(=O)[C@H]1C[C@@H]1c1cccc(F)c1)c1ccc(OC)cc1 [Compound 21, (1S,2S)-2-(3-Fluoro-phenyl)-cyclopropanecarboxylic acid [(R)-2-methoxy-1-(4-methoxy-phenyl)-ethyl]-amide]
160	COC[C@H](NC(=O)[C@H]1C[C@@H]1c1ccccc1)c1ccc(OC)cc1 [Compound 16, (1S,2S)-2-Phenyl-cyclopropanecarboxylic acid [(R)-2-methoxy-1-(4-methoxy-phenyl)-ethyl]-amide]
400	COc1ccc([C@H](CO)NC(=O)[C@H]2C[C@@H]2c2cccc(F)c2)cc1 [Compound 14, (1S,2S)-2-(3-Fluoro-phenyl)-cyclopropanecarboxylic acid [(R)-2-hydroxy-1-(4-methoxy-phenyl)-ethyl]-amide]
1200	COc1ccc([C@H](CO)NC(=O)[C@H]2C[C@@H]2c2ccccc2F)cc1 [Compound 15, (1S,2S)-2-(2-Fluoro-phenyl)-cyclopropanecarboxylic acid [(R)-2-hydroxy-1-(4-methoxy-phenyl)-ethyl]-amide]
3600	COC[C@H](NC(=O)[C@H]1C[C@@H]1c1ccccc1)c1ccc(O)cc1 [Compound 19, (1S,2S)-2-Phenyl-cyclopropanecarboxylic acid [(R)-1-(4-hydroxy-phenyl)-2-methoxy-ethyl]-amide]
33	CCOc1ccc([C@H](COC)NC(=O)[C@H]2C[C@@H]2c2ccccc2)cc1 [Compound 17, (1S,2S)-2-Phenyl-cyclopropanecarboxylic acid [(R)-1-(4-ethoxy-phenyl)-2-methoxy-ethyl]-amide]
